US12433899B2, “Therapeutics and method for treating osteoarthritis” (Calosyn Pharma Inc., priority 2021, dated 2025)

System: medial meniscal tear-induced cartilage degeneration
Assay: Rat medial meniscal tear model, knee histopathology after intra-articular dosing
Format: in vivo, Male Lewis rats
Conditions: IA 3 μg (each) Q4D days 4, 8, 12, 16, 20, 24; vs Q4D vehicle controls
Experimental: This model is performed by transection of the medial collateral ligament just below its attachment to the meniscus so that when the joint space opens, the meniscus is reflected toward the femur. The meniscus is cut at its narrowest point (away from the ossicles) taking care not to damage the tibial surface and making sure that the resulting transection produces separate, freely movable anterior and posterior meniscus halves.
Experimental Design: Animals were anesthetized with Isoflurane and the right knee area was prepared for surgery. A skin incision was made over the medial aspect of the knee and the medial collateral ligament was exposed by blunt dissection, and then transected. The medial meniscus was cut through the full thickness to simulate a complete tear. Skin and subcutis were closed with 4-0 Vicryl suture. Dosing by the intra-articular (IA) route began four days after surgery and continued as indicated below until day 24. Treatment groups were as follows: […]
All three sections of each knee were analyzed microscopically. In scoring the three sections, the worst-case scenario for the two halves on each slide was determined for general cartilage degeneration, proteoglycan loss, collagen damage, and osteophyte formation. […] When zones are scored individually, scores are assigned based on % area of the zone affected. […]

COc1ccc([C@@H]2Sc3ccccc3N(CCN(C)C)C(=O)[C@@H]2OC(C)=O)cc1 [Diltiazem, 5-[2-(dimethylamino)ethyl]-2-(4-methoxyphenyl)-4-oxo-2,3,4,5-tetrahydro-1,5-benzothiazepin-3-yl acetate]
decrease in the total joint score: 6%
